Assays:
Format in all cases: in vivo
[1] = test system: galium (catchweed bedstraw, Galium aparine); test: Test A greenhouse herbicide test, postemergence
Procedure, shortened: (§1)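 Plants grown in loam soil/sand blend pots were treated postemergence at 2 to 10 cm height, one- to two-leaf stage, with formulated test chemicals. After approximately 10 d in a greenhouse, injury was rated visually against untreated controls on a 0 to 100 scale (0 no effect, 100 complete control).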

[2] = test system: blackgrass (Alopecurus myosuroides); test: Test A greenhouse herbicide test, postemergence
Procedure, shortened: as §1

[3] = test system: rice (Oryza sativa); test: Test B flooded paddy test; conditions: 250 g ai/ha, Flood; visual rating on scale of 0 to 100 where 0 is no effect and 100 is complete control; 13 to 15 d after treatment
Procedure, shortened: (§2)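 Plants at the 2-leaf stage were flooded to 3 cm above soil, and test compounds were applied directly into the paddy water, which was held at that depth throughout. After 13 to 15 d in a greenhouse, injury was rated visually against untreated controls on a 0–100 scale (0 no effect, 100 complete control).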

[4] = test system: barnyardgrass (Echinochloa crus-galli); test: Test B flooded paddy test; conditions: 250 g ai/ha, Flood; visual rating on scale of 0 to 100 where 0 is no effect and 100 is complete control; 13 to 15 d after treatment
Procedure, shortened: as §2

[5] = test system: ducksalad (Heteranthera limosa); test: Test B flooded paddy test; conditions: 250 g ai/ha, Flood; visual rating on scale of 0 to 100 where 0 is no effect and 100 is complete control; 13 to 15 d after treatment
Procedure, shortened: as §2

[6] = test system: sedge, umbrella (small-flower umbrella sedge, Cyperus difformis); test: Test B flooded paddy test; conditions: 250 g ai/ha, Flood; visual rating on scale of 0 to 100 where 0 is no effect and 100 is complete control; 13 to 15 d after treatment
Procedure, shortened: as §2

[7] = test system: corn (Zea mays); test: Test A greenhouse herbicide test, pre- and postemergence; conditions: Postemergence
Procedure, shortened: (§3)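 Seeds sown in loam–sand blend got a preemergence directed soil spray of compound in non-phytotoxic solvent with surfactant. Postemergence treatment was given at 2–10 cm, one- to two-leaf stage. After ~10 d in greenhouse, injury was rated visually vs untreated controls, 0 (no effect) to 100 (complete control).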

[8] = test system: pigweed (Amaranthus retroflexus); test: as above
Procedure, shortened: as §3

[9] = test system: barnyardgrass (Echinochloa crus-galli); test: as above
Procedure, shortened: as §3

[10] = test system: ryegrass, Italian (Italian ryegrass, Lolium multiflorum); test: as above
Procedure, shortened: as §3

[11] = test system: wheat (Triticum aestivum); test: as above; conditions: Postemergence
Procedure, shortened: as §3

[12] = test system: kochia (Kochia scoparia); test: as above
Procedure, shortened: as §3

[13] = test system: ragweed (common ragweed, Ambrosia elatior); test: as above
Procedure, shortened: as §3

[14] = test system: foxtail, giant (giant foxtail, Setaria faberii); test: as above
Procedure, shortened: as §3

[15] = 125 g ai/ha, 0 to 100 scale where 0 is no effect and 100 is complete control
[16] = 500 g ai/ha, visual rating after approx. 10 d, 0 to 100 scale (0 no effect, 100 complete control)
[17] = Postemergence, 125 g ai/ha, 0 to 100 scale where 0 is no effect and 100 is complete control
[18] = Postemergence, 500 g ai/ha, visual rating after approx. 10 d, 0 to 100 scale (0 no effect, 100 complete control)
[19] = Preemergence, 125 g ai/ha, 0 to 100 scale where 0 is no effect and 100 is complete control
[20] = Preemergence, 500 g ai/ha, 0 to 100 scale where 0 is no effect and 100 is complete control
[21] = 125 g ai/ha, visual rating after approx. 10 d, 0 to 100 scale (0 no effect, 100 complete control)
[22] = 500 g ai/ha, 0 to 100 scale, 0 is no effect, 100 is complete control
[23] = Postemergence, 125 g ai/ha, visual rating after approx. 10 d, 0 to 100 scale (0 no effect, 100 complete control)
[24] = Postemergence, 500 g ai/ha, 0 to 100 scale, 0 is no effect, 100 is complete control
[25] = Preemergence, 500 g ai/ha, 0 to 100 scale, 0 no effect, 100 complete control
[26] = 125 g ai/ha, 0 to 100 scale, 0 no effect, 100 complete control
[27] = Postemergence, 125 g ai/ha, 0 to 100 scale, 0 no effect, 100 complete control
[28] = Preemergence, 125 g ai/ha, visual injury rating, 0 to 100 scale (0 no effect, 100 complete control), approx. 10 d

Compound: Cc1ccc2oc(C)c(-c3c(O)c(C(C)C)nn(C)c3=O)c2c1 [Compound 119]
- Plant response rating, Galium [1, 15]: 0
- Plant response rating, Galium [1, 16]: 0
- Plant response rating, Blackgrass [2, 15]: 0
- Plant response rating, Blackgrass [2, 16]: 0
- Plant response rating, Rice [3]: 0
- Plant response rating, Barnyardgrass [4]: 0
- Plant response rating, Ducksalad [5]: 0
- Plant response rating, Sedge, Umbrella [6]: 0
- Plant response rating, Corn [7, 15]: 0
- Plant response rating, Corn [7, 16]: 0
- Plant response rating, Pigweed [8, 17]: 0
- Plant response rating, Pigweed [8, 18]: 0
- Pigweed plant response rating [8, 19]: 0
- Plant response rating, Pigweed [8, 20]: 0
- Plant response rating, Barnyardgrass [9, 17]: 0
- Plant response rating, Barnyardgrass [9, 18]: 0
- Barnyardgrass plant response rating [9, 19]: 0
- Plant response rating, Barnyardgrass [9, 20]: 0
- Plant response rating, Ryegrass, Italian [10, 17]: 0
- Plant response rating, Ryegrass, Italian [10, 18]: 0
- Ryegrass, Italian plant response rating [10, 19]: 0
- Plant response rating, Ryegrass, Italian [10, 20]: 0
- Plant response rating, Wheat [11, 15]: 0
- Plant response rating, Wheat [11, 16]: 0
- Plant response rating, Kochia [12, 17]: 0
- Plant response rating, Kochia [12, 18]: 0
- Kochia plant response rating [12, 19]: 0
- Plant response rating, Kochia [12, 20]: 0
- Plant response rating, Ragweed [13, 17]: 0
- Plant response rating, Ragweed [13, 18]: 0
- Ragweed plant response rating [13, 19]: 0
- Plant response rating, Ragweed [13, 20]: 0
- Plant response rating, Foxtail, Giant [14, 17]: 0
- Plant response rating, Foxtail, Giant [14, 18]: 0
- Foxtail, Giant plant response rating [14, 19]: 0
- Plant response rating, Foxtail, Giant [14, 20]: 0

Compound: Cc1ccc2c(c1)c(-c1c(O)c(C)nn(C)c1=O)c(C)n2C [Compound 31]
- Plant response rating, Galium [1, 21]: 20
- Galium plant response rating [1, 22]: 70
- Plant response rating, Blackgrass [2, 21]: 0
- Blackgrass plant response rating [2, 22]: 20
- Plant response rating, Rice [3]: 0
- Plant response rating, Barnyardgrass [4]: 0
- Plant response rating, Ducksalad [5]: 0
- Plant response rating, Sedge, Umbrella [6]: 0
- Plant response rating, Corn [7, 21]: 0
- Corn plant response rating [7, 22]: 0
- Plant response rating, Pigweed [8, 23]: 20
- Pigweed plant response rating [8, 24]: 40
- Pigweed plant response rating [8, 19]: 0
- Plant response rating, Pigweed [8, 25]: 0
- Plant response rating, Barnyardgrass [9, 23]: 0
- Barnyardgrass plant response rating [9, 24]: 10
- Barnyardgrass plant response rating [9, 19]: 0
- Plant response rating, Barnyardgrass [9, 25]: 0
- Plant response rating, Ryegrass, Italian [10, 17]: 0
- Ryegrass, Italian plant response rating [10, 24]: 0
- Ryegrass, Italian plant response rating [10, 19]: 0
- Plant response rating, Ryegrass, Italian [10, 25]: 0
- Plant response rating, Wheat [11, 15]: 0
- Wheat plant response rating [11, 22]: 0
- Plant response rating, Kochia [12, 23]: 0
- Kochia plant response rating [12, 24]: 0
- Kochia plant response rating [12, 19]: 0
- Plant response rating, Kochia [12, 25]: 0
- Plant response rating, Ragweed [13, 23]: 0
- Ragweed plant response rating [13, 24]: 20
- Ragweed plant response rating [13, 19]: 0
- Plant response rating, Ragweed [13, 25]: 30
- Plant response rating, Foxtail, Giant [14, 23]: 0
- Foxtail, Giant plant response rating [14, 24]: 10
- Foxtail, Giant plant response rating [14, 19]: 0
- Plant response rating, Foxtail, Giant [14, 25]: 0

Compound: COC(=O)Oc1c(C)nn(C)c(=O)c1-c1c(C(F)(F)F)ccc2ccccc12 [Compound 149]
- Plant response rating, Galium [1, 15]: 90
- Plant response rating, Galium [1, 16]: 100
- Plant response rating, Blackgrass [2, 15]: 30
- Plant response rating, Blackgrass [2, 16]: 70
- Plant response rating, Rice [3]: 0
- Plant response rating, Barnyardgrass [4]: 0
- Plant response rating, Ducksalad [5]: 0
- Plant response rating, Sedge, Umbrella [6]: 0
- Plant response rating, Corn [7, 15]: 20
- Plant response rating, Corn [7, 16]: 30
- Plant response rating, Pigweed [8, 17]: 90
- Plant response rating, Pigweed [8, 18]: 100
- Pigweed plant response rating [8, 19]: 100
- Plant response rating, Pigweed [8, 20]: 100
- Plant response rating, Barnyardgrass [9, 17]: 20
- Plant response rating, Barnyardgrass [9, 18]: 20
- Barnyardgrass plant response rating [9, 19]: 0
- Plant response rating, Barnyardgrass [9, 20]: 70
- Plant response rating, Ryegrass, Italian [10, 17]: 70
- Plant response rating, Ryegrass, Italian [10, 18]: 100
- Plant response rating, Ryegrass, Italian [10, 20]: 90
- Plant response rating, Wheat [11, 15]: 20
- Plant response rating, Wheat [11, 16]: 70
- Plant response rating, Kochia [12, 17]: 80
- Plant response rating, Kochia [12, 18]: 100
- Kochia plant response rating [12, 19]: 40
- Plant response rating, Kochia [12, 20]: 90
- Plant response rating, Ragweed [13, 17]: 90
- Plant response rating, Ragweed [13, 18]: 90
- Plant response rating, Ragweed [13, 20]: 90
- Plant response rating, Foxtail, Giant [14, 17]: 40
- Plant response rating, Foxtail, Giant [14, 18]: 80
- Foxtail, Giant plant response rating [14, 19]: 30
- Plant response rating, Foxtail, Giant [14, 20]: 90

Compound: CCC(=O)Oc1c(Br)nn(C)c(=O)c1-c1c(C)ccc2ccccc12 [Compound 156]
- Plant response rating, Galium [1, 26]: 100
- Plant response rating, Galium [1, 16]: 100
- Plant response rating, Blackgrass [2, 26]: 60
- Plant response rating, Blackgrass [2, 16]: 90
- Plant response rating, Rice [3]: 0
- Plant response rating, Barnyardgrass [4]: 0
- Plant response rating, Ducksalad [5]: 60
- Plant response rating, Sedge, Umbrella [6]: 75
- Plant response rating, Corn [7, 26]: 0
- Plant response rating, Corn [7, 16]: 30
- Plant response rating, Pigweed [8, 27]: 90
- Plant response rating, Pigweed [8, 18]: 100
- Plant response rating, Pigweed [8, 28]: 100
- Plant response rating, Pigweed [8, 20]: 100
- Plant response rating, Barnyardgrass [9, 27]: 70
- Plant response rating, Barnyardgrass [9, 18]: 90
- Plant response rating, Barnyardgrass [9, 28]: 70
- Plant response rating, Barnyardgrass [9, 20]: 100
- Plant response rating, Ryegrass, Italian [10, 27]: 90
- Plant response rating, Ryegrass, Italian [10, 18]: 100
- Plant response rating, Ryegrass, Italian [10, 28]: 90
- Plant response rating, Ryegrass, Italian [10, 20]: 100
- Plant response rating, Wheat [11, 26]: 30
- Plant response rating, Wheat [11, 16]: 60
- Plant response rating, Kochia [12, 27]: 80
- Plant response rating, Kochia [12, 18]: 100
- Plant response rating, Kochia [12, 28]: 50
- Plant response rating, Kochia [12, 20]: 100
- Plant response rating, Ragweed [13, 27]: 90
- Plant response rating, Ragweed [13, 18]: 100
- Plant response rating, Ragweed [13, 28]: 90
- Plant response rating, Ragweed [13, 20]: 90
- Plant response rating, Foxtail, Giant [14, 27]: 90
- Plant response rating, Foxtail, Giant [14, 18]: 90
- Plant response rating, Foxtail, Giant [14, 28]: 80
- Plant response rating, Foxtail, Giant [14, 20]: 90

Compound: CCc1nn(C)c(=O)c(-c2c(C)oc3ccc(C)cc23)c1O [Compound 118]
- Plant response rating, Galium [1, 15]: 0
- Plant response rating, Galium [1, 16]: 0
- Plant response rating, Blackgrass [2, 15]: 0
- Plant response rating, Blackgrass [2, 16]: 0
- Plant response rating, Rice [3]: 0
- Plant response rating, Barnyardgrass [4]: 0
- Plant response rating, Ducksalad [5]: 0
- Plant response rating, Sedge, Umbrella [6]: 0
- Plant response rating, Corn [7, 15]: 0
- Plant response rating, Corn [7, 16]: 0
- Plant response rating, Pigweed [8, 17]: 0
- Plant response rating, Pigweed [8, 18]: 0
- Pigweed plant response rating [8, 19]: 0
- Plant response rating, Pigweed [8, 20]: 10
- Plant response rating, Barnyardgrass [9, 17]: 0
- Plant response rating, Barnyardgrass [9, 18]: 0
- Barnyardgrass plant response rating [9, 19]: 0
- Plant response rating, Barnyardgrass [9, 20]: 30
- Plant response rating, Ryegrass, Italian [10, 17]: 0
- Plant response rating, Ryegrass, Italian [10, 18]: 0
- Ryegrass, Italian plant response rating [10, 19]: 0
- Plant response rating, Ryegrass, Italian [10, 20]: 0
- Plant response rating, Wheat [11, 15]: 0
- Plant response rating, Wheat [11, 16]: 0
- Plant response rating, Kochia [12, 17]: 0
- Plant response rating, Kochia [12, 18]: 0
- Kochia plant response rating [12, 19]: 0
- Plant response rating, Kochia [12, 20]: 0
- Plant response rating, Ragweed [13, 17]: 0
- Plant response rating, Ragweed [13, 18]: 0
- Ragweed plant response rating [13, 19]: 0
- Plant response rating, Ragweed [13, 20]: 0
- Plant response rating, Foxtail, Giant [14, 17]: 0
- Plant response rating, Foxtail, Giant [14, 18]: 0
- Foxtail, Giant plant response rating [14, 19]: 0
- Plant response rating, Foxtail, Giant [14, 20]: 20

Reference: patent US10597388B2, “Pyridazinone herbicides” (FMC CORPORATION, priority 2014, dated 2020)
